Patent publication EP0547317A1, “Endothelin antagonists” (TAKEDA CHEMICAL INDUSTRIES, LTD., priority 1991, dated 1993)
Bridge positions count the residues as written; N and C are the ends. Square brackets hold non-standard residues; d marks the D form. Peptide text beside a SMILES is read from it. tBuAla = CC(C)(C)C[C@H](N)C(=O)O; Cha = N[C@@H](CC1CCCCC1)C(=O)O; Mpa = O=C(O)CCS

System: porcine coronary smooth muscles
Experiment: Assay of constrictor suppressing activity on porcine coronary smooth muscles (antagonism of endothelin-1 constriction)
Assay type: cell-based
Details: for pA₂: antagonistic activity on constriction by endothelin-1 given cumulatively about 15 minutes after the compound, negative logarithm of molar concentration of antagonist shifting the dose response curve by a factor of 2; for Relative potency: antagonistic activity on the constriction of porcine coronary smooth muscles, Example 1 = 100
Experimental: • (1) Assay of Constrictor Suppressing Activity on Porcine Coronary Smooth Muscles Spiral strips 2 mm x 15 mm prepared from the coronary right ramus circumflexus from which the adventitial connective tissues and the endothelial cells were removed were set to 4 ml organ baths. The tension of each strip was detected by a force displacement transducer UL-10GR (Minebea), and recorded by a polygraph (NEC Sanei). The organ baths were maintained at 37°C, and filled with a Krebs-Henseleit solution (composition: 118 mM NaCl, 4.7 mM KCl, 2.5 mM CaCl₂, 1.2 mM KH₂PO₄, 25.0 mM NaHCO₃, 1.2 mM MgSO₄, 10.0 mM glucose) gassed with 95% O₂ and 5% CO₂. A tension of 1.25 to 1.5 g was applied to each of the strips, followed by equilibration for 1.5 hours. 60 mM KCl was repeatedly applied thereto at intervals of 30 minutes until the constriction response became constant. After additional equilibration for 1.5 hours, a sample for assay was given thereto. The constriction of the strips was normalized by the constriction response of the individual strips to 60 mM KCl and statistically processed. The suppressing activity was determined as a pA₂ value by giving endothelin-1 cumulatively about 15 minutes after the compound having a predetermined concentration was given, and comparing the constriction thereof with that of a control sample in which only endothelin-1 was given. […] Such a case has not been reported yet. […] The affinity for the receptor was assayed by the following method.

SMILES	pA₂	Relative potency
CC[C@H](C)[C@H](NC(=O)[C@H](CC(C)C)NC(=O)[C@@H](NC(=O)[C@H](CC(C)C)NC(=O)[C@H](Cc1c[nH]cn1)NC(=O)[C@@H]1CSSC[C@H](N)C(=O)N[C@@H](CO)C(=O)N[C@H]2CSSC[C@H](NC(=O)[C@H](CCC(=O)O)NC(=O)[C@H](CCCCN)NC(=O)[C@H](CC(=O)O)NC(=O)[C@H](CCSC)NC(=O)[C@H](CC(C)C)NC(=O)[C@H](CO)NC(=O)[C@H](CO)NC2=O)C(=O)N[C@@H](C(C)C)C(=O)N[C@@H](Cc2ccc(O)cc2)C(=O)N[C@@H](Cc2ccccc2)C(=O)N1)[C@@H](C)O)C(=O)N[C@@H](Cc1c[nH]c2ccccc12)C(=O)O [Example 1, [Thr¹⁸, Leu¹⁹]-ET-1] (H-CSCSSLMDKECVYFCHLTLIW-OH; disulfide 1-15, 3-11)	7.7	100
CC[C@H](C)[C@H](NC(=O)[C@H](CC1CCCCC1)NC(=O)[C@@H](NC(=O)[C@H](CC(C)C)NC(=O)[C@H](Cc1c[nH]cn1)NC(=O)[C@@H]1CSSC[C@H](N)C(=O)N[C@@H](CO)C(=O)N[C@H]2CSSC[C@H](NC(=O)[C@H](CCC(=O)O)NC(=O)[C@H](CCCCN)NC(=O)[C@H](CC(=O)O)NC(=O)[C@H](CCSC)NC(=O)[C@H](CC(C)C)NC(=O)[C@H](CO)NC(=O)[C@H](CO)NC2=O)C(=O)N[C@@H](C(C)C)C(=O)N[C@@H](Cc2ccc(O)cc2)C(=O)N[C@@H](Cc2ccccc2)C(=O)N1)[C@@H](C)O)C(=O)N[C@@H](Cc1c[nH]c2ccccc12)C(=O)O [Example 2, [Thr¹⁸, Cha¹⁹]-ET-1] (H-CSCSSLMDKECVYFCHLT[Cha]IW-OH; disulfide 1-15, 3-11)	7.7	100
CC[C@H](C)[C@H](NC(=O)[C@H](Cc1ccccc1)NC(=O)[C@@H](NC(=O)[C@H](CC(C)C)NC(=O)[C@H](Cc1c[nH]cn1)NC(=O)[C@@H]1CSSC[C@H](N)C(=O)N[C@@H](CO)C(=O)N[C@H]2CSSC[C@H](NC(=O)[C@H](CCC(=O)O)NC(=O)[C@H](CCCCN)NC(=O)[C@H](CC(=O)O)NC(=O)[C@H](CCSC)NC(=O)[C@H](CC(C)C)NC(=O)[C@H](CO)NC(=O)[C@H](CO)NC2=O)C(=O)N[C@@H](C(C)C)C(=O)N[C@@H](Cc2ccc(O)cc2)C(=O)N[C@@H](Cc2ccccc2)C(=O)N1)[C@@H](C)O)C(=O)N[C@@H](Cc1c[nH]c2ccccc12)C(=O)O [Example 3, [Thr¹⁸, Phe¹⁹]-ET-1] (H-CSCSSLMDKECVYFCHLTFIW-OH; disulfide 1-15, 3-11)	7.2	32
CC[C@H](C)[C@H](NC(=O)[C@H](CC(C)(C)C)NC(=O)[C@@H](NC(=O)[C@H](CC(C)C)NC(=O)[C@H](Cc1c[nH]cn1)NC(=O)[C@@H]1CSSC[C@H](N)C(=O)N[C@@H](CO)C(=O)N[C@H]2CSSC[C@H](NC(=O)[C@H](CCC(=O)O)NC(=O)[C@H](CCCCN)NC(=O)[C@H](CC(=O)O)NC(=O)[C@H](CCSC)NC(=O)[C@H](CC(C)C)NC(=O)[C@H](CO)NC(=O)[C@H](CO)NC2=O)C(=O)N[C@@H](C(C)C)C(=O)N[C@@H](Cc2ccc(O)cc2)C(=O)N[C@@H](Cc2ccccc2)C(=O)N1)[C@@H](C)O)C(=O)N[C@@H](Cc1c[nH]c2ccccc12)C(=O)O [Example 4, [Thr¹⁸, γLeu¹⁹]-ET-1] (H-CSCSSLMDKECVYFCHLT[tBuAla]IW-OH; disulfide 1-15, 3-11)	7.4	50
CC[C@H](C)[C@H](NC(=O)[C@H](CC(C)C)NC(=O)[C@H](CO)NC(=O)[C@H](CC(C)C)NC(=O)[C@H](Cc1c[nH]cn1)NC(=O)[C@@H]1CSSC[C@H](N)C(=O)N[C@@H](CO)C(=O)N[C@H]2CSSC[C@H](NC(=O)[C@H](CCC(=O)O)NC(=O)[C@H](CCCCN)NC(=O)[C@H](CC(=O)O)NC(=O)[C@H](CCSC)NC(=O)[C@H](CC(C)C)NC(=O)[C@H](CO)NC(=O)[C@H](CO)NC2=O)C(=O)N[C@@H](C(C)C)C(=O)N[C@@H](Cc2ccc(O)cc2)C(=O)N[C@@H](Cc2ccccc2)C(=O)N1)C(=O)N[C@@H](Cc1c[nH]c2ccccc12)C(=O)O [Example 6, [Ser¹⁸, Leu¹⁹]-ET-1] (H-CSCSSLMDKECVYFCHLSLIW-OH; disulfide 1-15, 3-11)	7.5	63
CC[C@H](C)[C@H](NC(=O)[C@H](CC(C)C)NC(=O)CNC(=O)[C@H](CC(C)C)NC(=O)[C@H](Cc1c[nH]cn1)NC(=O)[C@@H]1CSSC[C@H](N)C(=O)N[C@@H](CO)C(=O)N[C@H]2CSSC[C@H](NC(=O)[C@H](CCC(=O)O)NC(=O)[C@H](CCCCN)NC(=O)[C@H](CC(=O)O)NC(=O)[C@H](CCSC)NC(=O)[C@H](CC(C)C)NC(=O)[C@H](CO)NC(=O)[C@H](CO)NC2=O)C(=O)N[C@@H](C(C)C)C(=O)N[C@@H](Cc2ccc(O)cc2)C(=O)N[C@@H](Cc2ccccc2)C(=O)N1)C(=O)N[C@@H](Cc1c[nH]c2ccccc12)C(=O)O [Example 8, [Gly¹⁸, Leu¹⁹]-ET-1] (H-CSCSSLMDKECVYFCHLGLIW-OH; disulfide 1-15, 3-11)	6.7	10
CC[C@H](C)[C@H](NC(=O)[C@H](CC(C)C)NC(=O)[C@@H](NC(=O)[C@H](CC(C)C)NC(=O)[C@H](Cc1c[nH]cn1)NC(=O)[C@@H]1CSSC[C@H](N)C(=O)N[C@@H](CO)C(=O)N[C@H]2CSSC[C@H](NC(=O)[C@H](CCC(=O)O)NC(=O)[C@H](C)NC(=O)[C@H](CC(=O)O)NC(=O)[C@H](CCSC)NC(=O)[C@H](CC(C)C)NC(=O)[C@H](CO)NC(=O)[C@H](CO)NC2=O)C(=O)N[C@@H](C(C)C)C(=O)N[C@@H](Cc2ccc(O)cc2)C(=O)N[C@@H](Cc2ccccc2)C(=O)N1)[C@@H](C)O)C(=O)N[C@@H](Cc1c[nH]c2ccccc12)C(=O)O [Example 10, [Ala⁹, Thr¹⁸, Leu¹⁹]-ET-1] (H-CSCSSLMDAECVYFCHLTLIW-OH; disulfide 1-15, 3-11)	5.9	1.6
CC[C@H](C)[C@H](NC(=O)[C@H](CC(C)C)NC(=O)[C@@H](NC(=O)[C@H](CC(C)C)NC(=O)[C@H](Cc1c[nH]cn1)NC(=O)[C@@H]1CSSCCC(=O)N[C@@H](CO)C(=O)N[C@H]2CSSC[C@H](NC(=O)[C@H](CCC(=O)O)NC(=O)[C@H](CCCCN)NC(=O)[C@H](CC(=O)O)NC(=O)[C@H](CCSC)NC(=O)[C@H](CC(C)C)NC(=O)[C@H](CO)NC(=O)[C@H](CO)NC2=O)C(=O)N[C@@H](C(C)C)C(=O)N[C@@H](Cc2ccc(O)cc2)C(=O)N[C@@H](Cc2ccccc2)C(=O)N1)[C@@H](C)O)C(=O)N[C@@H](Cc1c[nH]c2ccccc12)C(=O)O [Example 11, [Mpr¹, Thr¹⁸, Leu¹⁹]-ET-1] ([Mpa]SCSSLMDKECVYFCHLTLIW-OH; disulfide 1-15, 3-11)	6.5	6
CC[C@H](C)[C@H](NC(=O)[C@H](CC(C)C)NC(=O)[C@@H](NC(=O)[C@H](CC(C)C)NC(=O)[C@H](Cc1c[nH]cn1)NC(=O)[C@@H]1CSSC[C@H](N)C(=O)N[C@@H](C)C(=O)N[C@H]2CSSC[C@H](NC(=O)[C@H](CCC(=O)O)NC(=O)[C@H](CCCCN)NC(=O)[C@H](CC(=O)O)NC(=O)[C@H](CCSC)NC(=O)[C@H](CC(C)C)NC(=O)[C@H](CO)NC(=O)[C@H](CO)NC2=O)C(=O)N[C@@H](C(C)C)C(=O)N[C@@H](Cc2ccc(O)cc2)C(=O)N[C@@H](Cc2ccccc2)C(=O)N1)[C@@H](C)O)C(=O)N[C@@H](Cc1c[nH]c2ccccc12)C(=O)O [Example 12, [Ala², Thr¹⁸, Leu¹⁹]-ET-1] (H-CACSSLMDKECVYFCHLTLIW-OH; disulfide 1-15, 3-11)	6.7	10
CC[C@H](C)[C@H](NC(=O)[C@H](CC(C)C)NC(=O)[C@@H](NC(=O)[C@H](CC(C)C)NC(=O)[C@H](Cc1c[nH]cn1)NC(=O)[C@@H]1CSSC[C@H](N)C(=O)N[C@@H](CO)C(=O)N[C@H]2CSSC[C@H](NC(=O)[C@H](CCC(=O)O)NC(=O)[C@H](CCCCN)NC(=O)[C@H](CC(=O)O)NC(=O)[C@H](CCSC)NC(=O)[C@H](CC(C)C)NC(=O)[C@H](CO)NC(=O)[C@H](C)NC2=O)C(=O)N[C@@H](C(C)C)C(=O)N[C@@H](Cc2ccc(O)cc2)C(=O)N[C@@H](Cc2ccccc2)C(=O)N1)[C@@H](C)O)C(=O)N[C@@H](Cc1c[nH]c2ccccc12)C(=O)O [Example 13, [Ala⁴, Thr¹⁸, Leu¹⁹]-ET-1] (H-CSCASLMDKECVYFCHLTLIW-OH; disulfide 1-15, 3-11)	6.9	16
CC[C@H](C)[C@H](NC(=O)[C@H](CC(C)C)NC(=O)[C@@H](NC(=O)[C@H](CC(C)C)NC(=O)[C@H](Cc1c[nH]cn1)NC(=O)[C@@H]1CSSC[C@H](N)C(=O)N[C@@H](CO)C(=O)N[C@H]2CSSC[C@H](NC(=O)[C@H](CCC(=O)O)NC(=O)[C@H](CCCCN)NC(=O)[C@H](CC(=O)O)NC(=O)[C@H](CCSC)NC(=O)[C@H](CC(C)C)NC(=O)[C@H](C)NC(=O)[C@H](CO)NC2=O)C(=O)N[C@@H](C(C)C)C(=O)N[C@@H](Cc2ccc(O)cc2)C(=O)N[C@@H](Cc2ccccc2)C(=O)N1)[C@@H](C)O)C(=O)N[C@@H](Cc1c[nH]c2ccccc12)C(=O)O [Example 14, [Ala⁵, Thr¹⁸, Leu¹⁹]-ET-1] (H-CSCSALMDKECVYFCHLTLIW-OH; disulfide 1-15, 3-11)	5.5	0.6
